From US20140051679A1, “KINASE INHIBITORS AND METHOD OF TREATING CANCER WITH SAME” (UNIVERISTY HEALTH NETWORKS, priority 2011, published 2014)

What was measured:
human TTK = biological target: T1, human TTK (Homo sapiens, UniProt P33981); assay: TTK inhibition assay (indirect ELISA); format: biochemical; conditions: GST-TTK 0.68 nM, 16 μM ATP; read-out: IC50 Ranges TTK
T1 construct: amino terminal GST fusion of full length human TTK; purchased Invitrogen
T1 sequence (P33981 1-857): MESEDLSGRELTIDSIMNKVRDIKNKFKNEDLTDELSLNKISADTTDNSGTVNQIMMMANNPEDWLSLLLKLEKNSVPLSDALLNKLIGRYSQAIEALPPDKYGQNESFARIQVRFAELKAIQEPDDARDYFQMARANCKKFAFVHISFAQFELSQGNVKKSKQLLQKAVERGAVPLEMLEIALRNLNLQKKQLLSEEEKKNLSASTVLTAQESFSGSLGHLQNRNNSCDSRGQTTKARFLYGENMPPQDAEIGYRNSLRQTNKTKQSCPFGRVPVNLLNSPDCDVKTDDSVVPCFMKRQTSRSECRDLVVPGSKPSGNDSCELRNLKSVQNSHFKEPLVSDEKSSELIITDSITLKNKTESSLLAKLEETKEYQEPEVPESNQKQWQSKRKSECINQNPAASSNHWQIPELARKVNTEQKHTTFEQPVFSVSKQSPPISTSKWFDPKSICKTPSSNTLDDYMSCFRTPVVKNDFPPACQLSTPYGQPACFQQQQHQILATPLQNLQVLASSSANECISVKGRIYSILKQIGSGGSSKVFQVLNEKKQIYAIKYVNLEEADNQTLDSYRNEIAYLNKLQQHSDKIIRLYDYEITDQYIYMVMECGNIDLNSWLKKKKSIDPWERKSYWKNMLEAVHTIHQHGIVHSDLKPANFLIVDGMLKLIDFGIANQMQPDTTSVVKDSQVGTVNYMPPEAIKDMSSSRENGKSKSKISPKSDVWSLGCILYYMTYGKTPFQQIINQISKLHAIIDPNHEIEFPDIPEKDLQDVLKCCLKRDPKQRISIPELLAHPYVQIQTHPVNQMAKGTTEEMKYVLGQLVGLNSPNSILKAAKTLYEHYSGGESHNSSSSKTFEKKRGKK

[1] = tested on: MDA-MB-468 breast cancer cells; assay: Cell growth inhibition, Sulforhodamine B assay, MDA-MB-468; format: cell-based; conditions: Homo sapiens, 120 h, 5 days culture, SRB assay, read-out: Cell Line GI50 Range MDA-MB-468
[2] = tested on: MDA-MB-231 breast cancer cells; assay: Cell growth inhibition, Sulforhodamine B assay, MDA-MB-231; format: cell-based; conditions: Homo sapiens, 120 h, 5 days culture, SRB assay, read-out: Cell Line GI50 Range MDA-MB-231
[3] = tested on: Ovarian TICs, 2393A ovarian; assay: Ovarian tumor-initiating cell growth inhibition (Alamar Blue); format: cell-based; conditions: 144 h, 6 days, read-out: GI50 range 2393A ovarian
Description: (§1) Materials and Methods: Non-tissue or tissure cultured treated T-75 flask and 96-well plates were purchased from VWR. Vitamin B-27 supplement, MEM NEAA (minimum essential medium non essential amino acids), sodium pyruvate, L-glutamine, N2 supplement, penicillin-streptomycin and fungizone/amphotericin B were obtained from Invitrogen. Lipid mixture, heparin and EGF were purchased from Sigma; bFGF from BD Biosciences. Colon tumor initiating cells (TICs) were routinely maintained using non-tissue cultured treated T-75 flasks in DMEM:F12 medium containing 0.2XB-27 supplement, 4 ug/ml heparin, 1XMEM NEAA, 1× sodium pyruvate, 1 mM glutamine, 10 pg/ul bFGF, 20 pg/ul EGF, 1×N2 supplement, lipid mixture, penicillin-streptomycin and fungizone/amphotericin B. Ovarian TICs were routinely maintained using tissue cultured treated T-75 flasks in DMEM:F12 medium containing 1XB-27 supplement, 4 ug/ml heparin, 20 pg/ul bFGF, 20 pg/ul EGF and penicillin-streptomycin.
(§2) Compounds described herein were dissolved in DMSO and further diluted in cell culture medium for GI50 determination. Colon TICs were trypsinized and seeded into non-tissue cultured treated 96-well plates with 4,000 cells/well. After 24 h, compound was added into the cell culture at different concentrations, and the final concentration of DMSO was adjusted to 0.1%. Cells were then cultured at 37° C. for 9 days. Ovarian TICs were trypsinized and seeded into tissue cultured treated 96-well plates with 1,000 cells/well. After 24 h, compound was added into the cell culture at different concentrations, and the final concentration of DMSO was adjusted to 0.1%. Cells were then cultured at 37° C. for 6 days. Cell viability was assessed by Alamar Blue assay: 10 ul of Alamar Blue was added into each well. After 4 hours incubation at 37° C., fluorescence was recorded at excitation 544 and emission 590. GI50 (Growth inhibition) was calculated using GraphPad Prism 4.0 software.

human PLK4 = biological target: T2, human PLK4 (Homo sapiens, UniProt O00444); assay: PLK4 inhibition assay (indirect ELISA); format: biochemical; conditions: GST-PLK4 4 nM, 15 μM ATP; read-out: IC50 Ranges PLK4
T2 construct: amino terminal GST fusion of residues 1-391 of human PLK4; made in house; host or cells: E. coli
T2 sequence (O00444 1-391): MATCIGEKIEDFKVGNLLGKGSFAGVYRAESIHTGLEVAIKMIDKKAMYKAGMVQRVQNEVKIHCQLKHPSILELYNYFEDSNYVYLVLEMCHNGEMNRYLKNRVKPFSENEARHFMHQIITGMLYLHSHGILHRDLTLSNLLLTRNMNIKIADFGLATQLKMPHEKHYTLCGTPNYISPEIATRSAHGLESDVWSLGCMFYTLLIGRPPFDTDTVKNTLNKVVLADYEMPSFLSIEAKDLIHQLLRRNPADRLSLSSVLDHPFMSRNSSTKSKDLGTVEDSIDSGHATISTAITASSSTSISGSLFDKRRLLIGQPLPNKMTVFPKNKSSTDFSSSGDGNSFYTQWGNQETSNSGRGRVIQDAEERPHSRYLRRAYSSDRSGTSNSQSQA
Summary of the method: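 Compounds were tested either at a single 10 μM dose or across 10-point titrations (typically 0.5 to 0.001 μM), preincubated 15 min with 4 nM GST-PLK4 (human 1-391, dephosphorylated) before 15 μM ATP was added. MBP substrate phosphorylation over 30 min, pH 7.5 HEPES/MgCl2 buffer, read by HRP/TMB ELISA (450 nm). % inhibition vs. high-activity control; IC50 by logistic fit.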

[4] = tested on: PA-1 ovarian cancer cells; assay: Cell growth inhibition, Sulforhodamine B assay, PA-1; format: cell-based; conditions: 120 h, 5 days culture, SRB assay, read-out: Cell Line GI50 Range PA-1
[5] = tested on: HCT116 colon cancer cells; assay: Cell growth inhibition, Sulforhodamine B assay, HCT116; format: cell-based; conditions: Homo sapiens, HCT-116, 120 h, 5 days culture, SRB assay, read-out: Cell Line GI50 Range HCT116
[6] = tested on: OVCAR-3 ovarian cancer cells; assay: Cell growth inhibition, Sulforhodamine B assay, OVCAR-3; format: cell-based; conditions: Homo sapiens, 120 h, 5 days culture, SRB assay, read-out: Cell Line GI50 Range OVCAR-3
[7] = tested on: Colon tumor initiating cells (TICs), 12 colon; assay: Colon tumor-initiating cell growth inhibition (Alamar Blue); format: cell-based; conditions: 216 h, 9 days, read-out: GI50 range 12 colon
Description: as §1, §2

Aurora B = biological target: T3, Aurora B (Homo sapiens, UniProt Q96GD4); assay: Aurora B inhibition assay (Z-Lyte); format: biochemical; conditions: 28 nM Aurora B, 128 μM ATP; read-out: IC50 Ranges Aurora B
T3 construct: purchased Invitrogen PV3970
T3 sequence (Q96GD4 whole entry): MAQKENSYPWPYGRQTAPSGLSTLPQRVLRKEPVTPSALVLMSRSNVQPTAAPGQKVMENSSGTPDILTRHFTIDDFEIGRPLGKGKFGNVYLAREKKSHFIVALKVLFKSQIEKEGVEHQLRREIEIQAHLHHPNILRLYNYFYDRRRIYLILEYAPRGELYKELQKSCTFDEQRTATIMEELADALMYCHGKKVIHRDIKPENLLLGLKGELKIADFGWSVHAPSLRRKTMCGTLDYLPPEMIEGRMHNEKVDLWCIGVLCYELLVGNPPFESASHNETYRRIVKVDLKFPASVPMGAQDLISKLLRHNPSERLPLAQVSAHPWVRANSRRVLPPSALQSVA
Procedure: Aurora B inhibition was determined using the Z-Lyte assay kit from Invitrogen. The assay was performed using the recommended manufacturer's instructions with 128 μM ATP and 28 nM Aurora B (Invitrogen cat #PV3970). The % inhibition values were determined according to the manufacturer's directions and IC50 values were obtained using a non-linear 4 point logistic curve fit (XLfit4, IDBS)

HT29 colon cancer cells = assay: Cell growth inhibition, Sulforhodamine B assay, HT29; format: cell-based; conditions: Homo sapiens, HT-29, 120 h, 5 days culture, SRB assay, read-out: Cell Line GI50 Range HT29

Row | SMILES | IC50 (human TTK) | GI50 [1] | GI50 [2] | GI50 [3] | IC50 (human PLK4) | GI50 [4] | GI50 [5] | GI50 [6] | GI50 [7] | IC50 (Aurora B) | GI50 (HT29 colon cancer cells)
1 | CCOC(C(=O)Nc1ccc2[nH]nc(-c3ccc(OC4CCN(C)CC4)cc3)c2c1)c1ccccc1 (stereo not drawn) [Example A181, 2-ethoxy-N-(3-(4-((1-methylpiperidin-4-yl)oxy)phenyl)-1H-indazol-5-yl)-2-phenylacetamide] | ≤ 5 µM | ≤ 5 µM | ≤ 5 µM | ≤ 5 µM | ≤ 5 µM | ≤ 5 µM | ≤ 5 µM | ≤ 5 µM | ≤ 5 µM |  | 
2 | CC[C@H](NC(=O)c1ccc2[nH]nc(-c3ccc(OC4CCN(C5COC5)CC4)cc3)c2c1)c1ccccc1Cl [Example A193, (S)—N-(1-(2-chlorophenyl)propyl)-3-(4-((1-(oxetan-3-yl)piperidin-4-yl)oxy)phenyl)-1H-indazole-5-carboxamide] | ≤ 5 µM | ≤ 5 µM | ≤ 5 µM | ≤ 5 µM | ≤ 5 µM | ≤ 5 µM | ≤ 5 µM | ≤ 5 µM | ≤ 5 µM | ≤ 5 µM | 
3 | O=C(Nc1ccc2[nH]nc(-c3ccc(OC4CN(C5COC5)C4)cc3)c2c1)C(c1ccsc1)N1CCCC1 (stereo not drawn) [Example A189, N-(3-(4-((1-(oxetan-3-yl)azetidin-3-yl)oxy)phenyl)-1H-indazol-5-yl)-2-(pyrrolidin-1-yl)-2-(thiophen-3-yl)acetamide] | ≤ 5 µM | ≤ 5 µM | 5 to 20 µM | ≤ 5 µM | ≤ 5 µM | ≤ 5 µM | ≤ 5 µM | 20 to 50 µM | ≤ 5 µM | ≤ 5 µM | 
4 | O=C(NC(c1ccccn1)C1CC1)c1ccc2[nH]nc(-c3ccc(OC4CCN(C5COC5)CC4)cc3)c2c1 (stereo not drawn) [Example A171, N-(cyclopropyl(pyridin-2-yl)methyl)-3-(4-((1-(oxetan-3-yl)piperidin-4-yl)oxy)phenyl)-1H-indazole-5-carboxamide] | ≤ 5 µM | ≤ 5 µM |  | ≤ 5 µM | ≤ 5 µM | ≤ 5 µM | ≤ 5 µM | ≤ 5 µM | ≤ 5 µM | ≤ 5 µM | ≤ 5 µM
5 | CC(C)OC(C(=O)Nc1ccc2[nH]nc(-c3ccc(OC4CCN(C)CC4)cc3)c2c1)c1ccccc1 (stereo not drawn) [Example A187, 2-isopropoxy-N-(3-(4-((1-methylpiperidin-4-yl)oxy)phenyl)-1H-indazol-5-yl)-2-phenylacetamide] | ≤ 5 µM | ≤ 5 µM | ≤ 5 µM | ≤ 5 µM | ≤ 5 µM | ≤ 5 µM | ≤ 5 µM | ≤ 5 µM | ≤ 5 µM | ≤ 5 µM | 
6 | CN1CCC(Oc2ccc(-c3n[nH]c4ccc(C(=O)NC(c5ccccc5)C5CC5)cc34)cc2Cl)CC1 (stereo not drawn) [Example A188, 3-(3-chloro-4-((1-methylpiperidin-4-yl)oxy)phenyl)-N-(cyclopropyl(phenyl)methyl)-1H-indazole-5-carboxamide] | ≤ 5 µM | ≤ 5 µM | ≤ 5 µM | ≤ 5 µM | ≤ 5 µM | ≤ 5 µM | ≤ 5 µM | ≤ 5 µM | ≤ 5 µM | ≤ 5 µM | 
7 | CN1CCC(Oc2ccc(-c3n[nH]c4ccc(NC(=O)C(c5ccsc5)N5CCC5)cc34)cc2)CC1 (stereo not drawn) [Example A191, 2-(azetidin-1-yl)-N-(3-(4-((1-methylpiperidin-4-yl)oxy)phenyl)-1H-indazol-5-yl)-2-(thiophen-3-yl)acetamide] | ≤ 5 µM | ≤ 5 µM | ≤ 5 µM | ≤ 5 µM | ≤ 5 µM | ≤ 5 µM | ≤ 5 µM | ≤ 5 µM | ≤ 5 µM | ≤ 5 µM | 
8 | COC[C@@H](NC(=O)c1ccc2[nH]nc(-c3ccc(OC4CCN(C)CC4)cc3)c2c1)c1ccccc1 [Example A173, (S)—N-(2-methoxy-1-phenylethyl)-3-(4-((1-methylpiperidin-4-yl)oxy)phenyl)-1H-indazole-5-carboxamide] | ≤ 5 µM | ≤ 5 µM | ≤ 5 µM | ≤ 5 µM | ≤ 5 µM | ≤ 5 µM | ≤ 5 µM | 5 to 20 µM | ≤ 5 µM |  | ≤ 5 µM
9 | CN1CCC(Oc2ccc(-c3n[nH]c4ccc(C(=O)NC(c5ccccc5)C5CCCCC5)cc34)cc2)CC1 (stereo not drawn) [Example A170, N-(cyclohexyl(phenyl)methyl)-3-(4-((1-methylpiperidin-4-yl)oxy)phenyl)-1H-indazole-5-carboxamide] | ≤ 5 µM | ≤ 5 µM | ≤ 5 µM | ≤ 5 µM | ≤ 5 µM | ≤ 5 µM | ≤ 5 µM | ≤ 5 µM | ≤ 5 µM |  | ≤ 5 µM
10 | CO[C@@H](C(=O)Nc1ccc2[nH]nc(-c3ccc(OC4CCN(C=O)CC4)cc3)c2c1)c1ccccc1 [Example A169, (R)—N-(3-(4-((1-formylpiperidin-4-yl)oxy)phenyl)-1H-indazol-5-yl)-2-methoxy-2-phenylacetamide] | ≤ 5 µM | ≤ 5 µM |  | ≤ 5 µM | ≤ 5 µM | ≤ 5 µM | ≤ 5 µM | 5 to 20 µM | ≤ 5 µM |  | ≤ 5 µM
11 | CN1CCC(Oc2ccc(-c3n[nH]c4ccc(NC(=O)C(OC5CCCC5)c5ccccc5)cc34)cc2)CC1 (stereo not drawn) [Example A183, 2-(cyclopentyloxy)-N-(3-(4-((1-methylpiperidin-4-yl)oxy)phenyl)-1H-indazol-5-yl)-2-phenylacetamide] | ≤ 5 µM | ≤ 5 µM | ≤ 5 µM | ≤ 5 µM | ≤ 5 µM | ≤ 5 µM | ≤ 5 µM | ≤ 5 µM | ≤ 5 µM | ≤ 5 µM | 
